Test results published in article PMC6892255, “Identification of a potent small-molecule inhibitor of bacterial DNA repair that potentiates quinolone antibiotic activity in methicillin-resistant Staphylococcus aureus^” (Bioorganic & Medicinal Chemistry, 2019).
“Also recorded” adds a separate entry of the source.

Legend:
MRSA (USA300 JE2) [1] = experiment: Growth inhibition in the presence of H2O2; format: cell-based, Staphylococcus aureus
Method: (§1) The analogue panel was further tested for potentiation of alternative DNA-damaging agents Mitomycin-C (MMC) and hydrogen peroxide (Table S2), which function via alkylation and oxidization DNA bases, respectively.
(§2) 2.1. Biological and biochemical methods
(§3) Bacterial strains and culture conditions
(§4) Strains utilized in the present study are detailed in Table S1. All strains used were cultivated on Mueller Hinton Agar (MHA) and grown to stationary-phase in Mueller Hinton Broth (MHB) at 37 °C for 16 h, with shaking at 180 r.p.m.
(§5) Minimum inhibitory concentration (MIC) assays
(§6) MIC assays were performed in 96 well plates and MICs were determined in accordance with the broth microdilution protocol.4 Strains grown to stationary-phase in MHB were adjusted to 5 x 10^5 colony-forming units (CFU)/mL in fresh MHB (100 µL/well) supplemented with DMSO to ensure a constant concentration of 0.5% (v/v) DMSO across all experiments. Where […]
(§7) or H2O2 (200 μM). Test compounds were prepared as two-fold serial dilutions. Cells were […]
(§8) as the lowest concentration with no visible bacterial growth, and the optical density at 600 nm (OD600) was recorded. OD600 measurements were background corrected against no-inocula control and normalized to DMSO control for dose-response analysis. The EC50 value mean and SEM were calculated from individual EC50 values from three biological replicates. […]

MRSA (USA300 JE2) [2] = experiment: Growth inhibition in the presence of mitomycin-C; format: cell-based, Staphylococcus aureus
Method: as §1, §2, §3, §4, §5, §6, §7, §8

[3] = test system: AddAB (StrepII-AddA and His6-AddB); experiment: Recombinant AddAB pulldown with compound-functionalized Sepharose; format: binding; details: E. coli lysate co-expressing StrepII-AddA and His6-AddB, Western blot
Excerpt: A SOS reporter system was generated by transformation of JE2 cells with a plasmid containing GFP under control of the recA promoter. Activation of the SOS response in these cells results in expression of GFP which can be monitored by fluorescence intensity. […] This decrease is indicative of inhibition of the SOS response during cell death, and consistent with the proposed inhibition of AddAB-mediated DNA repair pathways. Finally, to provide additional evidence that inhibition of the bacterial DNA repair pathway by IMP-1700 (10) occurred through inhibition of AddAB, a target pulldown was conducted. IMP-1700 (10) was coupled with N-Boc-ethylenediamine to afford amide 19, followed by removal of the Boc group in 4 M HCl/dioxane and purification using strong cation exchange resin. The resulting free amine 20 was coupled to N-hydroxysuccinimide (NHS)-activated Sepharose resin at 4 °C overnight (Figure 2C), and the remaining NHS sites quenched in Tris buffer. SoluBL21 competent E. coli were transformed with pET28b^+ containing StrepII-tagged AddA and hexahistidine-tagged AddB, and expression induced overnight at 16 °C. Cells were lysed via sonication and the total lysate incubated with IMP-1700 (10)-functionalized or control Sepharose beads which had been treated with DMSO then Tris-quenched. Beads were washed three times with lysis buffer and bound protein eluted with SDS-PAGE sample buffer, followed by PAGE separation. […]
agar (LA) supplemented with kanamycin (50 μg/mL). Liquid cultures were grown at 37 °C with shaking at 180 r.p.m until an OD600 of 0.5 was reached, at which point cultures were cooled to 16 °C. Protein expression was induced by addition of isopropyl β-D-thiogalactoside (1 mM), followed by incubation for 20 h at 16 °C with shaking. Cells were collected by centrifugation (4,000 × g, 5 min) and stored at -20 °C.
Cells were re-suspended in lysis buffer (50 mM Tris-HCl, 150 mM NaCl, pH 7.5) and lysed on ice by sonication (2 min, 5 s on-off cycle, 40% amplitude) using a Vibra-cell sonicator (Sonics). […]

For O=C(O)c1cn(C2CC2)c2cc(N3CCN(C(=S)Nc4ccc(C(F)(F)F)cc4)CC3)c(F)cc2c1=O [Compound 10], the “Potentiation of hydrogen peroxide” value (MRSA (USA300 JE2) [1]; JE2) was “did not potentiate”, the EC50 (MRSA (USA300 JE2) [1]; read-out: EC50 Compound + H2O2 (200 µM), MRSA USA300 JE2, H2O2 200 µM) was 4100 ± 600 nM and the “Potentiation of Mitomycin-C (MMC)” value (MRSA (USA300 JE2) [2]; JE2) was “did not potentiate”. The EC50 (MRSA (USA300 JE2) [2]; read-out: EC50 Compound + MMC (0.40 µM), MRSA USA300 JE2, mitomycin-C 0.40 µM) was 1400 ± 300 nM, the “Pulldown of AddA and AddB by compound-functionalized Sepharose” value [3] was “allows co-isolation of the complex” and the “Pulldown of AddA and AddB by compound-functionalized Sepharose” value ([3]; listed as IMP-1700) was “both AddA and AddB subunits were pulled down; also recorded: successfully pulled down”.
